The test system of this assay is Lac161_ORF7. Kind of assay: glucose release, glucose oxidase/peroxidase assay. Format: biochemical, metagenome: corn field soil. The settings on record: 100 mM MES pH 6.0, 50 °C (methods print Lac161_ORF3 for this temperature), 30 min.

For the compound `OC[C@H]1O[C@@H](O[C@H]2[C@H](O)[C@@H](O)C(O)O[C@@H]2CO)[C@H](O)[C@@H](O)[C@H]1O` (stereo partly shown) [lactose], the Michaelis constant (Km) was determined as 1.8 mM.

(Values after PMC5342196 (PLoS ONE, 2017).)
